Format: in vivo
Details: both treatment groups together
Experimental: Key exclusion criteria related to significant baseline pulmonary and cardiac disease, including uncontrolled hypertension (defined as an average systolic blood pressure >159 mmHg or diastolic >99 mmHg despite optimal treatment). Analysis of LVEF changes over time was conducted. Long-term corticosteroid treatment equivalent to a dexamethasone dose of 4.0 mg/day or prednisone at a dose of >20 mg/day was not permitted while receiving study treatment. Corticosteroids administered short-term (up to 2 weeks) were permitted, provided the cumulative dose was less than a 40 mg per week dexamethasone equivalent.
Randomization was performed using an interactive voice or web response system. […]
Statistical analysis: Efficacy evaluations were based on the intention-to-treat population. […] For primary and key secondary endpoints, response and disease progression were determined by a blinded Independent Review Committee. Additionally, they were determined locally by investigators in an unblinded manner and centrally by the sponsor using a validated computer algorithm, which served as sensitivity analysis of PFS.
Descriptive statistics identified the extent of missing data. […] For patients who died on study, the death date was recorded on the end of study CRF page at the end of the study date. […]

Question: For `CC(C)C[C@H](NC(=O)[C@H](CCc1ccccc1)NC(=O)CN1CCOCC1)C(=O)N[C@@H](Cc1ccccc1)C(=O)N[C@@H](CC(C)C)C(=O)[C@@]1(C)CO1` [carfilzomib], which “patients who discontinued carfilzomib due to AEs, overall” value is on record?
Answer: The value was 21.3%.
